Measured values reported in US7767238B2, “Beverage composition and method of preventing degradation of vitamins in beverages” (PepsiCo, Inc., priority 2005, dated 2010).
Blank lines part the entries; values can stand above or below the molecule they belong to.

What was measured:
[1] = Vitamin A Palmitate remaining in non-carbonated pink lemonade 5% juice, PET bottle, store fluorescent light (Example 3); format: physicochemical; conditions: 66 ppm stabilizer, start 3500 IU, one week fluorescent light, Light control 737, Dark control 3215
Experimental: (§1) A clear lemon-lime (L/L) carbonated soft drink (CSD) with Vitamin C and ethylene-diaminetetraacetic acid (EDTA) was prepared. Seven samples of the carbonated soft drink were prepared each containing 2500 IU of Vitamin A Palmitate which can be obtained from Roche and the amount of rutin, SanMelin or blueberry leaves extract indicated in Table 8. All samples were packaged in clear glass containers. The Dark and Light samples were each free of rutin, SanMelin or blueberry leaves extract. The Dark sample was shielded from light. All the other samples, including the Light sample were exposed to typical store fluorescent light. The values in the table were all measured at one week.
A non-carbonated pink lemonade beverage composed of 5% juice was prepared. Seven samples like the ones in Examples 1 and 2 were prepared except that the starting amount of Vitamin A Palmitate was 3500 IU and the samples were packaged in PET containers.

[2] = Vitamin A Palmitate remaining in clear lemon-lime CSD with Vitamin C and EDTA, clear glass, store fluorescent light (Example 1); format: physicochemical; conditions: start 2500 IU, one week fluorescent light, Light control 576, Dark control 2300
Experimental: as §1

[3] = Vitamin A Palmitate remaining in clear lemon-lime CSD with Vitamin C and EDTA, clear glass, store fluorescent light (Example 2); format: physicochemical; conditions: 100 ppm stabilizer, start 2000 IU, one week fluorescent light, Light control 548, Dark control 1870
Experimental: as §1
Example 2 differed from Example 1 in that the starting amount of Vitamin A Palmitate was 2000 IU.

[4] = Vitamin stabilization ability, observed rank order; conditions: more hydroxyl groups on the aryl rings enhance vitamin stabilization
[5] = Vitamin A remaining in fruit juice in 20 oz. PET bottle under store fluorescent light; format: physicochemical; conditions: freshly prepared 3500 IU fruit juice, typical store fluorescent light, one week, no stabilizer

IU of Vitamin A Palmitate [1]: 1824 IU | IU of Vitamin A Palmitate ([2]; 33 ppm stabilizer): 878 IU | IU of Vitamin A Palmitate ([2]; 66 ppm stabilizer): 1215 IU | IU of Vitamin A Palmitate [3]: 856 IU
Molecule: C[C@@H]1O[C@@H](OC[C@H]2O[C@@H](Oc3c(-c4ccc(O)c(O)c4)oc4cc(O)cc(O)c4c3=O)[C@H](O)[C@@H](O)[C@@H]2O)[C@H](O)[C@H](O)[C@H]1O [Rutin, rutin]

Molecule: O=C(O)/C=C/c1ccc(O)c(O)c1 [caffeic acid]
vitamin stabilization ability (rank order) [4]: caffeic acid (2 hydroxyl groups)>ferulic acid>coumaric acid>cinnamic acid

Molecule: O=C(O)C=Cc1ccccc1 [cinnamic acid]
vitamin stabilization ability (rank order) [4]: caffeic acid (2 hydroxyl groups)>ferulic acid>coumaric acid>cinnamic acid

Molecule: O=C(O)/C=C/c1ccc(O)cc1 [coumaric acid]
vitamin stabilization ability (rank order) [4]: caffeic acid (2 hydroxyl groups)>ferulic acid>coumaric acid>cinnamic acid

Molecule: COc1cc(/C=C/C(=O)O)ccc1O [ferulic acid]
vitamin stabilization ability (rank order) [4]: caffeic acid (2 hydroxyl groups)>ferulic acid>coumaric acid>cinnamic acid

remaining Vitamin A content [5]: approximately 1000 IU
Molecule: Vitamin A
